The text below walks through data of patent US20230257376A1, “ROCK INHIBITOR, AND PREPARATION METHOD THEREFOR AND USE THEREOF” (WUHAN LL SCIENCE AND TECHNOLOGY DEVELOPMENT CO., LTD., priority 2020, published 2023).

The target in one data set is T1, ROCK2 kinase (Homo sapiens, UniProt O75116).
T1 construct: purchased Invitrogen PV3759
The experiment in a line: In vitro evaluation of ROCK2 kinase activity (HTRF KinEASE-STK time-resolved fluorometric assay). Format: biochemical. The conditions noted are these: ROCK2 kinase 0.4 ng/μL, ATP 6.739 μM. As for the experimental part:
ROCK2 activity screening. ROCK2 activity was detected using a 96-well (Cisbio) time-resolved fluorometric assay. The assay for ROCK2 was performed in the following assay buffer: 5 mM MgCl2 (Sigma), 1 mM DTT (Sigma) and 1× kinase buffer. The kinase buffer was used for dilution. 7.5 μL of ROCK2 kinase (Invitrogen, PV3759) was added to a 96-well microplate to reach a final concentration of 0.4 ng/μL, and then 0.25 μL of test compound (DMSO content: 1% (volume fraction)) was added. The mixture was incubated at room temperature for 0.5 h. To start the reaction, the kinase buffer was used to mix ATP (Aladdin) and the substrate STK-substrate 2-biotin. 7.5 μL of the mixed solution was added to the microplate to reach final concentrations of 6.739 μM and 1 μM. The resulting mixture was incubated at room temperature for 2 h. 5 mL of detection buffer was mixed with STK antibody-Cryptate, and then an appropriate volume of the mixture was mixed with an equal volume of streptavidin-XL665. 10 μL of the resulting mixture was added to the microplate to stop the reaction. After further incubation for about 1 h, the microplate was read on a Molecular Devices SpectraMax i3x multifunctional microplate reader. The kinase buffer, the STK-substrate 2-biotin, the detection buffer, the STK antibody-Cryptate, and the streptavidin-XL665 were all from HTRF KinEASE-STK kit (Cisbio, 1000 tests, 61GSTXLA).

A short description of data set [1]: In vitro metabolic stability, guinea pig liver microsome incubation. Format: in vitro ADME. As to conditions: liver microsomes, 1 mg/mL protein, 37° C., read-out: T1/2 in guinea pig liver microsome. As for the experimental part:
(§1) The in vitro metabolic stability of the compounds disclosed herein was determined through incubation of liver microsomes of various species. A proper amount of test compound was added into a liver microsome reaction system (1 mg/mL liver microsome protein, 25 U/mL glucose-6 phosphate dehydrogenase, 1 mM NADP, 6 mM D-glucose 6-phosphate and 5 mM MgCl2), and then the mixture was incubated in a water bath kettle at 37° C. to start reaction. At each time point, 100 μL of the reaction liquid was added into a centrifuge tube containing 400 μL of internal standard working solution (containing a 200 ng/mL solution of dexamethasone, diclofenac, tolbutamide and labetalol in acetonitrile) precooled at 0° C. so as to stop the reaction, and the mixture was then centrifuged at 10,000 g for 10 min at 4° C. The supernatant was collected for LC-MS assay so as to obtain the values of in vitro metabolic half-life of the test compounds in liver microsomes of various species.
For orientation: Microsomes from liver hold many membrane-bound enzymes, among them those of drug oxidation.

Data set [2] is described as follows: In vivo pharmacokinetic study in mice. As to conditions: mouse, plasma; for AUC(0-t) / Cmax: 1 mg/kg. The text has this:
[…] After administration, plasma of mice was collected at specific time points, and the concentration of the compound in the plasma was detected by LC-MS/MS (AB SCIEX Qtrap4500). The PK parameters of the compounds were statistically analyzed and calculated (WinNonlin V5.2, Pharsight) to show the pharmacokinetic properties of the compounds disclosed herein in mice.

Data set [3] can be described thus: In vitro cytotoxicity assay in HepG2 cells using the CCK-8 method. Format: cell-based. As to conditions: human. As for the experimental part: In vitro cytotoxicity assay for the compounds disclosed herein was performed in HepG2 cells using the CCK-8 method. HepG2 cells (Beina Bio) in the logarithmic growth phase were collected, the concentration of cell suspension was adjusted, and then the cells were plated on a 96-well cell culture plate at 50,000 cells/well. The cells were then incubated overnight in a cell incubator (5%, 37° C.), and after 80-90% cell confluence was achieved, test compound at each concentration gradient or vehicle (DMSO) was added after medium change. The resulting mixture was incubated in the cell incubator (5%, 37° C.) for 48 h. After the treatment, the medium in the plate was discarded. The plate was washed twice with PBS, added with CCK-8 working solution (Beyotime) at 100 μL per well, and then incubated at 37° C. for 1.5 h in the dark. Absorbance at OD450 nm mil was measured for each well on a microplate reader, and CC50 value of each compound was analyzed and calculated.
(In general: Tetrazolium dyes change colour on reduction, which living cells bring about.)

Data set [4] can be described thus: In vitro metabolic stability, human liver microsome incubation. Format: in vitro ADME. As to conditions: liver microsomes, 1 mg/mL protein, 37° C., read-out: T1/2 in human liver microsome. As for the experimental part:
as §1

A short description of data set [5]: In vitro metabolic stability, rat liver microsome incubation. The data set is classed as in vitro ADME. The conditions noted are these: liver microsomes, 1 mg/mL protein, 37° C., read-out: T1/2 in rat liver microsome. As for the experimental part:
as §1

For the next data set, the target named is T2, ROCK1 kinase (Homo sapiens, UniProt Q13464).
T2 construct: purchased Invitrogen
Description: In vitro evaluation of ROCK1 kinase selectivity (HTRF KinEASE-STK time-resolved fluorometric assay). Format: biochemical. The conditions noted are these: ROCK1 kinase 0.4 ng/μL, ATP 3.53 μM. As for the experimental part: ROCK1 activity was detected using a 96-well (Cisbio) time-resolved fluorometric assay. The assay for ROCK1 was performed in the following assay buffer: 5 mM MgCl2 (Sigma), 1 mM DTT (Sigma) and 1× kinase buffer. The kinase buffer was used for dilution. 7.5 μL of ROCK1 kinase (Invitrogen) was added to a 96-well microplate to reach a final concentration of 0.4 ng/μL, and then 0.25 μL of test compound (DMSO content: 1%) was added. The mixture was incubated at room temperature for 0.5 h. To start the reaction, the kinase buffer was also used to mix ATP (Aladdin) and the substrate STK-substrate 2-biotin. 7.5 μL of the mixed solution was added to the microplate to reach final concentrations of 3.53 μM and 1 μM. The resulting mixture was incubated at room temperature for 2 h. 5 mL of detection buffer was mixed with STK antibody-Cryptate, and then an appropriate volume of the mixture was mixed with an equal volume of streptavidin-XL665. 10 μL of the resulting mixture was added to stop the reaction. After further incubation for about 1 h, the microplate was read on a Molecular Devices SpectraMax i3x multifunctional microplate reader. The kinase buffer, the STK-substrate 2-biotin, the detection buffer, the STK antibody-Cryptate, and the streptavidin-XL665 were all from HTRF KinEASE-STK kit (Cisbio, 1000 tests, 61GSTXLA).

T2 sequence (Q13464 whole entry): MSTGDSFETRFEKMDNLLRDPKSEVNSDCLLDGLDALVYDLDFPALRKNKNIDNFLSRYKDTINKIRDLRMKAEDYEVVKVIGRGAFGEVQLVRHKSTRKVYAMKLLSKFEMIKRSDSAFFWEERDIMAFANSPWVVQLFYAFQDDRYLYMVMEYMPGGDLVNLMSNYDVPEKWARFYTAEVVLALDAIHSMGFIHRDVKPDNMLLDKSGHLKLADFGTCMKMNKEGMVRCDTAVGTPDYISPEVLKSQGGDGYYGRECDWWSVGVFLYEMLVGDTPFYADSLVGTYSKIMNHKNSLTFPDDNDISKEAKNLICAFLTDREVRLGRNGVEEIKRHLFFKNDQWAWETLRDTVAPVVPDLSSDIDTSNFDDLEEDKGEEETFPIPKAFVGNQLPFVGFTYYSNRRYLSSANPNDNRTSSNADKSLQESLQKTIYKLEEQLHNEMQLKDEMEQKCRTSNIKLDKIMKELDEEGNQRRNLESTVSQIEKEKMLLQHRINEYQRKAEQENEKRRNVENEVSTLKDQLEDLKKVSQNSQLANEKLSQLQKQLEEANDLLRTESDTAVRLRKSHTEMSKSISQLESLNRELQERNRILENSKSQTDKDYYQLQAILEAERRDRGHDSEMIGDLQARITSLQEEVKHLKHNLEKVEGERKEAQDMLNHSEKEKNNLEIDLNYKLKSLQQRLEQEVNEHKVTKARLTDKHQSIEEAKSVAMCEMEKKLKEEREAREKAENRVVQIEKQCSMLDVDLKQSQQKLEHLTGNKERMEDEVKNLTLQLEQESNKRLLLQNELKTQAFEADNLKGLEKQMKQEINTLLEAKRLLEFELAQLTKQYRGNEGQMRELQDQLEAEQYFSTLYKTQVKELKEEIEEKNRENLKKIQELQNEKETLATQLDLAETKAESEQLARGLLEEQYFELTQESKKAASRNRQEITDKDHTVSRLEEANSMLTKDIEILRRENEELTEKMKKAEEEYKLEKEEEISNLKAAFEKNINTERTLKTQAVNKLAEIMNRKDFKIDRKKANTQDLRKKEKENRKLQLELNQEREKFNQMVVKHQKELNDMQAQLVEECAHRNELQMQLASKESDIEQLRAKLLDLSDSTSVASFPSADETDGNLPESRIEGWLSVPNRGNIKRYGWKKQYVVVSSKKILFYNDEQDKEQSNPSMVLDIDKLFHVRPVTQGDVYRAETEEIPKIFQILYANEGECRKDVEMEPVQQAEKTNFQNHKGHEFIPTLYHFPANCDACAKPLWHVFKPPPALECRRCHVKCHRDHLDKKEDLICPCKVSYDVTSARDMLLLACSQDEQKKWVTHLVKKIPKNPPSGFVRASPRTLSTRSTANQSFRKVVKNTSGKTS
T1 sequence (O75116 whole entry): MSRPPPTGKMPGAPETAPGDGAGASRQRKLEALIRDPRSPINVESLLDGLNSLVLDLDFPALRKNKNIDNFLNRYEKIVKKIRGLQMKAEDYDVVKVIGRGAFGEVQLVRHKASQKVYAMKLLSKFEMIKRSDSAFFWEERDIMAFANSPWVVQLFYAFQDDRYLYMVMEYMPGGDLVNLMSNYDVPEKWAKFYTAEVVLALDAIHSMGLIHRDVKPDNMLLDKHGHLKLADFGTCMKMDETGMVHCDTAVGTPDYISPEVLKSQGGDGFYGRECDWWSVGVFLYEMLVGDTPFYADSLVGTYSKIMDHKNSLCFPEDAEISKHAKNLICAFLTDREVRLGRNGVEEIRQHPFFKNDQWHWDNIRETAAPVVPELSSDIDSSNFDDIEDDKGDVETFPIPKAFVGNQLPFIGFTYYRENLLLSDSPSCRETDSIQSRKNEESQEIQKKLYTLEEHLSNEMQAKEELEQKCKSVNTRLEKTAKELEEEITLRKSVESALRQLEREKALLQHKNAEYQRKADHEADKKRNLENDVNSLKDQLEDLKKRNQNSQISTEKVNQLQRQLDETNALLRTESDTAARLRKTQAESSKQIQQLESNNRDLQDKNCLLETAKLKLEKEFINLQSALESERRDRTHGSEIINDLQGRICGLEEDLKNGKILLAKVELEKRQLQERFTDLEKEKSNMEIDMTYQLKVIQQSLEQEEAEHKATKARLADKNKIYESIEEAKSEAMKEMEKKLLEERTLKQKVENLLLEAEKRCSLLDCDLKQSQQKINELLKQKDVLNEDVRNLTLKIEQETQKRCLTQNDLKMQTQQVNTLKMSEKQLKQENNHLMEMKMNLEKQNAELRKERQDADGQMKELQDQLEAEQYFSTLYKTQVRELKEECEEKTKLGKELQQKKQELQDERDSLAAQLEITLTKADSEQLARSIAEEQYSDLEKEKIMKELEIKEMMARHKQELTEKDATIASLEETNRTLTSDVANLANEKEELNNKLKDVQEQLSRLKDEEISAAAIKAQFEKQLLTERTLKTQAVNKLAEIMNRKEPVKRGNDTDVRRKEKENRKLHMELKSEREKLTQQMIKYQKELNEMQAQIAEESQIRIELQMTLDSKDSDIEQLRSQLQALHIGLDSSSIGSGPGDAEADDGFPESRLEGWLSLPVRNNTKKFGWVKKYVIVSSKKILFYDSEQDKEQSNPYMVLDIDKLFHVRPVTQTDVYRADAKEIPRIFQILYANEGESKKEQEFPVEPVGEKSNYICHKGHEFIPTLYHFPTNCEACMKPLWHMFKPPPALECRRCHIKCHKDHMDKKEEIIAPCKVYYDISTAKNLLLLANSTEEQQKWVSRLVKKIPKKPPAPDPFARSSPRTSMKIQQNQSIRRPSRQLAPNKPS

At ROCK2 kinase, `Cc1nc(Nc2ccc(-c3cn[nH]c3)cc2)nc(N2CCc3cc(C(=O)N4CC(F)(F)C4)n(C)c3C2)n1` [Compound L044] came in with an IC50 of 50 to 500 nM. Besides, the half-life in data set [1] stood at 170 min; in data set [4], 439 min; in data set [5] it was 210 min. The compound also had a bioavailability in data set [2] (1 mg/kg Po (fasted) vs 1 mg/kg Iv) of 54.8%. Besides, the AUC(0-t) in data set [2] (Iv) was 787 ng·h/mL; in data set [2] (Po (fasted)), 431 ng·h/mL. The peak concentration (Cmax) in data set [2] (Iv) was 594 ng/mL; in data set [2] (Po (fasted)), 109 ng/mL. The CC50 at 48 h in data set [3] amounted to 58.1 µM.

On to `COc1cnc(N2CCc3cc(C(=O)N4CC(F)(F)C4)n(C)c3C2)nc1Nc1ccc(-c2cn[nH]c2)cc1` [Compound L026, (6-(4-((4-(1H-pyrazol-4-yl)phenyl)amino)-5-methoxypyrimidin-2-yl)-1-methyl-4,5,6,7-tetrahydro-1H-pyrrolo[2,3-c]pyridin-2-yl)(3,3-difluoroazetidin-1-yl)methanone], for which the IC50 on ROCK2 kinase was at most 50 nM; against ROCK1 kinase, above 4.5 µM. The half-life amounted to 28.4 min in data set [1], 237 min in data set [4] and 61.2 min in data set [5]. Besides, the CC50 at 48 h in data set [3] is above 100 µM.

`Cn1c(C(=O)OCC(F)(F)F)cc2c1CN(c1nccc(Nc3ccc(-c4cn[nH]c4)cc3)n1)CC2` [Compound L032, 2,2,2-trifluoroethyl 6-(4-((4-(1H-pyrazol-4-yl)phenyl)amino)pyrimidin-2-yl)-1-methyl-4,5,6,7-tetrahydro-1H-pyrrolo[2,3-c]pyridine-2-carboxylate]: the IC50 was 50 to 500 nM on ROCK2 kinase and above 4.5 µM at ROCK1 kinase. The half-life was determined as 33.8 min in data set [1], 81 min in data set [4] and 42.5 min in data set [5]. The CC50 at 48 h in data set [3] was 28.4 µM.

As for `Cn1c(C(=O)N2CC(F)(F)C2)cc2c1CN(c1nc(CC#N)nc(Nc3ccc(-c4cn[nH]c4)cc3)n1)CC2` [Compound L051, 2-(4-((4-(1H-pyrazol-4-yl)phenyl)amino)-6-(2-(3,3-difluoroazetidin-1-carbonyl)-1-methyl-1,4,5,7-tetrahydro-6H-pyrrolo[2,3-c]pyridin-6-yl)-1,3,5-triazin-2-yl)acetonitrile], the IC50 on ROCK2 kinase was 50 to 500 nM; against ROCK1 kinase, above 4.5 µM. Further, the half-life amounted to 50.4 min in data set [1], 289 min in data set [4] and 65 min in data set [5]. The same compound came in with a cytotoxic concentration (CC50) at 48 h in data set [3] above 100 µM.

For `Cn1c(C(=O)N2CC(F)(F)C2)cc2c1CN(c1nc(C#N)cc(Nc3ccc(-c4cn[nH]c4)cc3)n1)CC2` [Compound L042], the values for the IC50 on ROCK2 kinase and against ROCK1 kinase were 50 to 500 nM and above 4.5 µM, respectively. The half-life in data set [1] was found to be 349 min; in data set [4] it was 438 min; in data set [5], 345 min. For the same compound, it took 27.9 µM to reach half-maximal cytotoxicity in data set [3] (CC50 at 48 h).

The compound `COc1nnc(N2CCc3cc(C(=O)N4CC(F)(F)C4)n(C)c3C2)nc1Nc1ccc(-c2cn[nH]c2)cc1` [Compound L043, (6-(5-((4-(1H-pyrazol-4-yl)phenyl)amino)-6-methoxy-1,2,4-triazin-3-yl)-1-methyl-4,5,6,7-tetrahydro-1H-pyrrolo[2,3-c]pyridin-2-yl)(3,3-difluoroazetidin-1-yl)methanone] had an IC50 on ROCK2 kinase of 50 to 500 nM. The half-life in data set [1] is 85.2 min; in data set [4] it was 112 min; in data set [5], 80.4 min. In data set [3], this compound had a CC50 at 48 h above 100 µM.

In the case of `Cn1c(C(=O)N2CC(F)(F)C2)cc2c1CN(c1nncc(Nc3ccc(-c4cn[nH]c4)cc3)n1)CC2` [Compound L037, (6-(5-((4-(1H-pyrazol-4-yl)phenyl)amino)-1,2,4-triazin-3-yl)-1-methyl-4,5,6,7-tetrahydro-1H-pyrrolo(2,3-c)pyridin-2-yl)(3,3-difluoroazetidin-1-yl)methanone], the IC50 against ROCK2 kinase is at most 50 nM; on ROCK1 kinase it was above 4.5 µM. The half-life in data set [1] was 60 min; in data set [4], 157 min; in data set [5], 33.2 min. The compound also came in with a CC50 at 48 h in data set [3] above 100 µM.

Turning to `Cn1c(C(=O)N2CC(F)(F)C2)cc2c1CN(c1nc(Nc3ccc(-c4cn[nH]c4)cc3)c3cccn3n1)CC2` [Compound L057, (6-(4-((4-(1H-pyrazol-4-yl)phenyl)amino)pyrrolo[2,1-f][1,2,4]triazin-2-yl)-1-methyl-4,5,6,7-tetrahydro-1H-pyrrolo[2,3-c]pyridin-2-yl)(3,3-difluoroazetidin-1-yl)methanone], the IC50 against ROCK2 kinase is 50 to 500 nM; against ROCK1 kinase, above 4.5 µM. Besides, the half-life in data set [1] amounted to 131 min; in data set [4], 190 min; in data set [5] it was 45.5 min. The same compound displayed a CC50 at 48 h in data set [3] above 100 µM.

Turning to `Cn1c(C(=O)N2CC(C(F)(F)F)C2)cc2c1CN(c1nccc(Nc3ccc(-c4cn[nH]c4)cc3)n1)CC2` [Compound L033], the IC50 is at most 50 nM against ROCK2 kinase and above 4.5 µM at ROCK1 kinase. In addition, the half-life in data set [1] was 50.2 min; in data set [4], 93.2 min; in data set [5] it was 68.3 min. Also, the CC50 at 48 h in data set [3] is above 100 µM.

For `Cc1nc(Nc2ccc(-c3cn[nH]c3)cc2)nc(N2CCc3cc(C(=O)N4CC(C#N)C4)n(C)c3C2)n1` [Compound L050, 1-(6-(4-((4-(1H-pyrazol-4-yl)phenyl)amino)-6-methyl-1,3,5-triazin-2-yl)-1-methyl-4,5,6,7-tetrahydro-1H-pyrrolo[2,3-c]pyridin-2-carbonyl)azetidine-3-carbonitrile], the figures for the IC50 against ROCK2 kinase and against ROCK1 kinase were 50 to 500 nM and above 4.5 µM, respectively. Moreover, the half-life in data set [1] stood at 64.2 min; in data set [4] it was 259 min; in data set [5] it was 61.7 min. This compound also had a CC50 at 48 h in data set [3] above 100 µM.

`Cn1c(C(=O)N2CC(C#N)C2)cc2c1CN(c1ncc(F)c(Nc3ccc(-c4cn[nH]c4)cc3)n1)CC2` [Compound L056, 1-(6-(4-((4-(1H-pyrazol-4-yl)phenyl)amino)-5-fluoropyrimidin-2-yl)-1-methyl-4,5,6,7-tetrahydro-1H-pyrrolo[2,3-c]pyridin-2-carbonyl)azetidine-3-carbonitrile]: the IC50 on ROCK2 kinase is at most 50 nM; on ROCK1 kinase, above 4.5 µM. For the same compound, the half-life in data set [1] was determined as 42.1 min; in data set [4], 60.4 min; in data set [5] it was 52.8 min. The compound also displayed a CC50 at 48 h in data set [3] above 100 µM.

As usually defined, the IC50 is the midpoint of a concentration-inhibition curve. A high value points to a need for much substance. A word on the bioavailability: it is dose-corrected exposure relative to a reference, in per cent. As a reminder, the AUC(0-t) is the area under the concentration-time curve up to a stated or last time point. As usually defined, the Cmax is the maximum level reached in the sampled fluid or tissue. In general, CC50 refers to the concentration that lowers cell viability or growth by half. Low values mean harm at low concentration, high ones better tolerance by the cells.
